In publication PMC2892903 (Journal of agricultural and food chemistry, 2010):

Assay: Plasma pharmacokinetics
Format: in vivo, Sprague-Dawley rats
Settings: rat plasma, any confection treatment (CDK, CHS, CMP)

**Q.** Which “Detection in plasma (HPLC-MS)” value does the source give for Oc1cc(O)c2c(c1)OC(c1ccc(O)c(O)c1)C(O)C2 (racemic) [(±)-C, (±)-catechin] here?
**A.** The value was “No intact (±)-C, (±)-C/EC sulfated metabolites or unconjugated O-Me-(±)-C/EC metabolites were detected in the plasma”.

**Q.** With Oc1cc(O)c2c(c1)O[C@H](c1ccc(O)c(O)c1)[C@H](O)C2 (racemic) [(±)-EC, (−)-epicatechin] as the compound, how does the “Detection in plasma (HPLC-MS)” value read?
**A.** The value was “minor component in blood”.
